Counter-ions that a name gives are not always drawn.
Tests used:
TNF-α production = test: In vivo TNF-α production inhibiting action in rat (LPS-induced plasma TNF-α); design: species or system SD male rats; conditions: oral administration 1 hour before LPS (10 μg/kg i.v.), plasma TNF-α 90 minutes after LPS
Protocol: LPS (10 μg/kg) was administered to caudal veins of SD male rats, and after 90 minutes from the administration, the heparin blood was collected from the abdominal vena cava to prepare a plasma. The test compound was orally administered 1 hour before the administration of LPS. The amount of TNF-α in the plasma was measured using a BD OptEIA rat TNF ELISA set (manufactured by Becton, Dickinson and Company) according to the attached method. The inhibitory rate by the test compound was determined from the amount of TNF-α in plasma in a control group (administered with a solvent).

rat EP4 receptor = rat EP4 receptor (Rattus norvegicus, UniProt P43114); test: Evaluation test on EP4 receptor affinity in rat ([3H]PGE2 receptor binding test, membrane fraction); design: expressed in transfected cells; host or cells: HEK293 cells, transient transfection (Lipofectamine 2000); membrane fraction used; conditions: [3H]PGE2 0.3 nM, membrane fraction of rat EP4 expressing HEK293 cells
Protocol: A rat EP4 receptor cDNA was subcloned into an expression vector (pcDNA3.1-V5-His-topo, manufactured by Invitrogen Corporation) to prepare a rat EP4 expression vector. HEK293 cells were cultured in a collagen type I-treated 15 cm dish (manufactured by Asahi Techno Glass Co. Ltd.) to a confluence of 70%. An Opti-MEM culture medium at 1.2 mL/dish and a transfection reagent (Lipofectamine 2000, manufactured by Invitrogen Corporation) at 60 μL/dish were mixed, followed by being left to stand at room temperature for 5 minutes. Then, the rat EP4 receptor expression vector at 15 μg/dish was added thereto, followed by being left to stand at room temperature for 30 minutes. The liquid mixture of the transfection reagent was added into the dish, followed by culturing for 20 to 24 hours. The cell culture was carried out in a CO2 incubator (37° C., 5% CO2).
The culture medium was removed by suction, 10 mL of cooled PBS was added thereto per 15 cm dish, and the cells were scraped using a cell scraper. After washed with cooled PBS (1,200 rpm, 4° C., 5 minutes), suspended in 6 mL/dish of cooled 20 mM Tris-HCl (pH 7.4; manufactured by Nacalai Tesque Inc., 5 mM EDTA included) and homogenized using a Polytron, the homogenate was centrifuged (26,000 rpm, 20 minutes, 4° C.). The obtained precipitate was resuspended in cooled 20 mM Tris-HCl and homogenized again using a Polytron, and the homogenate was centrifuged (26,000 rpm, 20 minutes, 4° C.). The obtained precipitate was resuspended in 50 mM HEPES (pH 7.5; manufactured by Dojindo Laboratories) at 1 mL per dish, homogenized using a Polytron, and freeze-stored at −80° C. as a membrane fraction. At this time, a part thereof was used for the measurement of the protein concentration. Measurement of the protein concentration was carried out using a Protein assay stain (manufactured by Bio-Rad Laboratories) in accordance with a standard Protocol as appended in duplicate.
[^3H]PGE2 50 μL (final concentration 0.3 nM; manufactured by Perkin Elmer Co., Ltd.), 100 μL (20 μg/well) of the membrane fraction prepared from the rat EP4 expression cell, and 50 μL of a test compound were mixed in a 96-well microplate (manufactured by Sumitomo Bakelite Co., Ltd.), incubated at room temperature for 1 hour, then filtered by suction on a microplate (UniFilter-96 GF/B, manufactured by Perkin Elmer Co., Ltd.) using a cell harvester (FilterMate Harvester, manufactured by Perkin Elmer Co., Ltd.), and washed three times with 300 μL/well of a cooled assay buffer (50 mM HEPES, 10 mM MgCl2). Dilution of [^3H]PGE2 and the membrane fraction was carried out using the assay buffer, and dilution of the test compound and the unlabeled PGE2 was carried out using dimethyl sulfoxide and the assay buffer. The UniFilter-96 GF/B was treated by preliminarily washing twice with 200 μL/well of the cooled assay buffer. The UniFilter-96 GF/B after filtration was dried in a dryer overnight, 50 μL/well of a liquid scintillation cocktail (MicroScint20, manufactured by Perkin Elmer Co., Ltd.) was added thereto, and the radioactivity was then measured using a liquid scintillation counter for a microplate (TopCount, manufactured by Perkin Elmer Co., Ltd.). For measurement of the non-specific binding, an unlabeled PGE2 (final concentration 1 μM; manufactured by Cayman Chemical Company) was added. All of the measurements were carried out in duplicate, and the specific binding amount was determined by subtracting the non-specific binding amount from the total binding amount.
According to the test method as described above, the rat EP4 receptor affinity (Ki) of the compound of the formula (I) was measured. […] In this connection, Ex means Example Compound number.

[1] = test system: LPS-induced TNF-α production in THP-1 cells; test: Inhibitory action on LPS-induced TNF-α production in THP-1 cells; format: cell-based; conditions: Homo sapiens, 3 hours after LPS, ELISA
Protocol: Human monocytic cell line THP-1 cells were suspended in an assay medium (PRMI-1640 containing 10% fetal bovine serum, 100 unit/mL penicillin G sodium, and 100 μg/mL streptomycin sulfate), and seeded onto a 96-well plate at 1×10^5 cells/well. 50 μL/well of an assay medium containing a test compound was added thereto, followed by incubation at 37° C. for 30 minutes. Further, 50 μL/well of an assay medium containing 1 to 5 μg/mL of LPS was added thereto, and the TNF-α concentration in the assay medium of each well after 3 hours was measured. The measurement was carried out by means of a standard ELISA method. A 96-well plate which had been coated overnight with an anti-human TNF monoclonal antibody (clone: MAb1) (manufactured by Becton, Dickinson and Company) as a capture antibody was washed with a wash buffer (PBS containing 0.05% Tween-20), and PBS containing 10% fetal bovine serum was incubated at room temperature for 1 hour to perform blocking. After washing with a wash buffer, 100 μL/well of the assay medium to be measured was incubated at 4° C. overnight. As the standard material to be measured, a recombinant human TNF (manufactured by Becton, Dickinson and Company) was used. After washing with a wash buffer, 100 μL of a biotinylated anti-human TNF monoclonal antibody (clone: MAb11) as a detection antibody was treated at room temperature for 1 hour. After washing with a wash buffer, it was treated with 100 μL/well of an HRP-labeled Streptavidin (manufactured by Zymed Laboratories, Inc.) at room temperature for 30 minutes, and washed again. Treatment was conducted using 100 μL/well of a TMB (3,3′,5,5′-tetramethylbenzidine) substrate liquid at room temperature for 20 minutes in a dark room. A 2 M sulfuric acid was added thereto at 50 μL/well to stop the reaction, and an absorbance at 450 nm/570 nm was measured by means of a plate reader SPECRA max (manufactured by Molecular Devices Inc.).

Chain of rat EP4 receptor (P43114 whole entry): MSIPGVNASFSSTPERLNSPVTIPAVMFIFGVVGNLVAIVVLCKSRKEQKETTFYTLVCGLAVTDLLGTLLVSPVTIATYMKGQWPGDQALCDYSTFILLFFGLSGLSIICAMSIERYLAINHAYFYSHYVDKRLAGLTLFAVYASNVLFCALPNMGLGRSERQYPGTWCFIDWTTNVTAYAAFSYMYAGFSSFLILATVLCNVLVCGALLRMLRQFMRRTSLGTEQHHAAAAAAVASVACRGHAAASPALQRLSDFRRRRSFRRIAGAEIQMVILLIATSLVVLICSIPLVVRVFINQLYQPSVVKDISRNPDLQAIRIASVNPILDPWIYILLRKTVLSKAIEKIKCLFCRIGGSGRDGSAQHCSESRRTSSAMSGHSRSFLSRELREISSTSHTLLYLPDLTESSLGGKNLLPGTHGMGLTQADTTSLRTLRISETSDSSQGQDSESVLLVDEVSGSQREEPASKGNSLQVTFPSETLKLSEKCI

Ki (rat EP4 receptor) | IC50 [1] | SMILES | ED50 (TNF-α production)
11 nM | 9.4 nM | CCC[C@H]1CCCN1Cc1c(Cl)cc(Cl)c(=O)n1CCc1ccc(C(=O)O)cc1 [Example 17, 4-{2-[3,5-dichloro-2-oxo-6-{[(2S)-2-propylpyrrolidin-1-yl]methyl}pyridin-1(2H)-yl]ethyl}benzoic acid trifluoroacetate] | 0.15 mg/kg
10 nM | 40 nM | O=C(O)c1ccc(CCn2c(CNc3cccc(OC(F)(F)F)c3)c(Cl)cc(Cl)c2=O)cc1 [Example 107] | 1 mg/kg
11 nM | 29 nM | CN(Cc1c(Cl)cc(Cl)c(=O)n1CCc1ccc(C(=O)O)cc1)c1cccc(Cl)c1 [Example 160] | 2.3 mg/kg
11 nM | 11 nM | O=C(O)c1ccc(CCn2c(CN3CCc4ccc(F)cc43)c(Cl)cc(Cl)c2=O)cc1 [Example 9, 4-(2-{3,5-dichloro-6-[(6-fluoro-2,3-dihydro-1H-indol-1-yl)methyl]-2-oxopyridin-1(21-1)-yl}ethyl)benzoic acid] | 4.3 mg/kg
